Measurements from the NIST ThermoML archive (doi:10.1021/je0502546).

Experiments:
[1] = xn = mol fraction of the nth substance listed; conditions: 101 kPa, Liquid; for viscosity: Capillary tube (Ostwald / Ubbelohde) method
[2] = refractive index (Na D-line) (dimensionless); xn = mol fraction of the nth substance listed; conditions: 101 kPa, Liquid, Standard Abbe refractometry
[3] = refractive index (Na D-line) (dimensionless); conditions: 101.33 kPa, Liquid, Standard Abbe refractometry
[4] = 101 kPa, Liquid; for viscosity: Capillary tube (Ostwald / Ubbelohde) method

COc1ccccc1 [anisole] + Cc1ccccc1
Conditions | mass density, [1] [kg/m3] | refractive index, [2] | viscosity, [1] [mPa·s]
293.15 K, x1 = 0.0966 | 879.58 | 1.4993 | 0.62
293.15 K, x1 = 0.1954 | 892.47 | 1.5016 | 0.656
293.15 K, x1 = 0.2911 | 904.89 | 1.5037 | 0.693
293.15 K, x1 = 0.3936 | 918.06 | 1.506 | 0.736
293.15 K, x1 = 0.5043 | 932.17 | 1.5083 | 0.787
293.15 K, x1 = 0.5985 | 944.06 | 1.5102 | 0.834
293.15 K, x1 = 0.6995 | 956.7 | 1.5122 | 0.89
293.15 K, x1 = 0.7956 | 968.63 | 1.514 | 0.947
293.15 K, x1 = 0.8986 | 981.29 | 1.5159 | 1.013
293.15 K, x1 = 1 | 993.8 | 1.5177 | 1.084
303.15 K, x1 = 0.0966 | 870.21 | 1.4936 | 0.549
303.15 K, x1 = 0.1954 | 883.13 | 1.4959 | 0.579
303.15 K, x1 = 0.2911 | 895.55 | 1.4981 | 0.61
303.15 K, x1 = 0.3936 | 908.76 | 1.5003 | 0.645
303.15 K, x1 = 0.5043 | 922.89 | 1.5027 | 0.687
303.15 K, x1 = 0.5985 | 934.8 | 1.5046 | 0.726
303.15 K, x1 = 0.6995 | 947.44 | 1.5067 | 0.772
303.15 K, x1 = 0.7956 | 959.38 | 1.5085 | 0.818
303.15 K, x1 = 0.8986 | 972.06 | 1.5105 | 0.872
303.15 K, x1 = 1 | 984.37 | 1.5124 | 0.931

c1ccccc1 [benzene] + COc1ccccc1
x2 = 0
Conditions | mass density, [1] [kg/m3] | refractive index, [2] | viscosity, [1] [mPa·s]
293.15 K | 877.43 | 1.5011 | 0.647
303.15 K | 868.26 | 1.4947 | 0.563

CCc1ccccc1 [ethylbenzene] + COc1ccccc1
x2 = 0
Conditions | mass density, [1] [kg/m3] | refractive index, [2] | viscosity, [1] [mPa·s]
293.15 K | 866.95 | 1.4957 | 0.669
303.15 K | 858.01 | 1.4902 | 0.596

CCCc1ccccc1 [propylbenzene] + COc1ccccc1
Conditions | mass density, [1] [kg/m3] | refractive index, [2] | viscosity, [1] [mPa·s]
293.15 K, x2 = 0 | 863.13 | 1.4916 | 0.855
293.15 K, x2 = 0.1216 | 876.73 | 1.4944 | 0.857
293.15 K, x2 = 0.2422 | 890.73 | 1.4972 | 0.862
293.15 K, x2 = 0.3455 | 903.18 | 1.4996 | 0.874
293.15 K, x2 = 0.4531 | 916.62 | 1.5023 | 0.892
293.15 K, x2 = 0.5658 | 931.23 | 1.5051 | 0.915
293.15 K, x2 = 0.6574 | 943.52 | 1.5076 | 0.94
293.15 K, x2 = 0.7486 | 956.19 | 1.5101 | 0.971
293.15 K, x2 = 0.8349 | 968.57 | 1.5126 | 1.005
293.15 K, x2 = 0.916 | 980.65 | 1.515 | 1.042
303.15 K, x2 = 0 | 854.71 | 1.4858 | 0.744
303.15 K, x2 = 0.1216 | 868.36 | 1.4886 | 0.748
303.15 K, x2 = 0.2422 | 882.36 | 1.4914 | 0.752
303.15 K, x2 = 0.3455 | 894.78 | 1.4939 | 0.758
303.15 K, x2 = 0.4531 | 908.15 | 1.4966 | 0.77
303.15 K, x2 = 0.5658 | 922.67 | 1.4995 | 0.79
303.15 K, x2 = 0.6574 | 934.9 | 1.5019 | 0.812
303.15 K, x2 = 0.7486 | 947.46 | 1.5045 | 0.84
303.15 K, x2 = 0.8349 | 959.71 | 1.507 | 0.87
303.15 K, x2 = 0.916 | 971.62 | 1.5095 | 0.899

COc1ccccc1 [anisole]
Conditions | mass density, [4] [kg/m3] | refractive index, [3] | viscosity, [4] [mPa·s]
293.15 K | 993.8 | 1.5177 | 1.084
303.15 K | 984.37 | 1.5124 | 0.931

COc1ccccc1 [anisole] + CCc1ccccc1
Conditions | mass density, [1] [kg/m3] | refractive index, [2] | viscosity, [1] [mPa·s]
293.15 K, x1 = 0.1061 | 879.21 | 1.4977 | 0.691
293.15 K, x1 = 0.2202 | 892.9 | 1.5 | 0.721
293.15 K, x1 = 0.3206 | 905.19 | 1.502 | 0.752
293.15 K, x1 = 0.4278 | 918.51 | 1.5041 | 0.789
293.15 K, x1 = 0.5402 | 932.69 | 1.5065 | 0.834
293.15 K, x1 = 0.6322 | 944.49 | 1.5086 | 0.876
293.15 K, x1 = 0.7282 | 956.99 | 1.5108 | 0.923
293.15 K, x1 = 0.8198 | 969.11 | 1.513 | 0.973
293.15 K, x1 = 0.8994 | 979.84 | 1.5153 | 1.02
293.15 K, x1 = 1 | 993.8 | 1.5177 | 1.084
303.15 K, x1 = 0.1061 | 870.49 | 1.4922 | 0.616
303.15 K, x1 = 0.2202 | 884.19 | 1.4944 | 0.639
303.15 K, x1 = 0.3206 | 896.45 | 1.4964 | 0.662
303.15 K, x1 = 0.4278 | 909.71 | 1.4986 | 0.689
303.15 K, x1 = 0.5402 | 923.84 | 1.501 | 0.725
303.15 K, x1 = 0.6322 | 935.58 | 1.5031 | 0.759
303.15 K, x1 = 0.7282 | 948.02 | 1.5053 | 0.798
303.15 K, x1 = 0.8198 | 960.07 | 1.5075 | 0.841
303.15 K, x1 = 0.8994 | 970.71 | 1.5099 | 0.878
303.15 K, x1 = 1 | 984.37 | 1.5124 | 0.931
